Data published in patent publication US20210094971A1, “HETEROCYCLIC COMPOUNDS” (Hoffmann-La Roche Inc., priority 2019, published 2021).
pIC50: −log10 of the molar value.

Target: T1, MAGL (Homo sapiens, UniProt Q99685)
T1 sequence (Q99685 1-303): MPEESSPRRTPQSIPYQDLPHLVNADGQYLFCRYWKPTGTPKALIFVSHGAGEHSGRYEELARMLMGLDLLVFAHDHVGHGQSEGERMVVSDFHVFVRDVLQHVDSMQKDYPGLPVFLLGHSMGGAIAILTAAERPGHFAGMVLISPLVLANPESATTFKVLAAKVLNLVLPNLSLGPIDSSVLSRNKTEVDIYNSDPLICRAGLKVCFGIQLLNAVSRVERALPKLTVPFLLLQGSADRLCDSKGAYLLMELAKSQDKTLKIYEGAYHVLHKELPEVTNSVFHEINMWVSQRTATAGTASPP
Assay: 2-AG assay (MAGL inhibitory activity, hydrolysis of 2-arachidonoylglycerol followed by mass spectrometry)
Format: biochemical
Details: 50 pM MAGL, 8 μM 2-arachidonoylglycerol, 15 min pre-incubation, 30 min incubation at RT
Method: Compounds were profiled for MAGL inhibitory activity by determining the enzymatic activity by following the hydrolysis of the natural substrate 2-arachidonoylglycerol resulting in arachidonic acid, which can be followed by mass spectrometry. This assay is hereinafter abbreviated “2-AG assay”.
The 2-AG assay was carried out in 384 well assay plates (PP, Greiner Cat# 784201) in a total volume of 20 μL. Compound dilutions were made in 100% DMSO (VWR Chemicals 23500.297) in a polypropylene plate in 3-fold dilution steps to give a final concentration range in the assay from 12.5 μM to 0.8 pM. 0.25 μL compound dilutions (100% DMSO) were added to 9 μL MAGL in assay buffer (50 mM TRIS (GIBCO, 15567-027), 1 mM EDTA (Fluka, 03690-100 ml), 0.01% (v/v) Tween. After shaking, the plate was incubated for 15 min at RT. To start the reaction, 10 μL 2-arachidonoylglycerol in assay buffer was added. The final concentrations in the assay was 50 pM MAGL and 8 μM 2-arachidonoylglyerol. After shaking and 30 min incubation at RT, the reaction was quenched by the addition of 40 μL of acetonitrile containing 4 μM of d8-arachidonic acid. The amount of arachidonic acid was traced by an online SPE system (Agilent Rapidfire) coupled to a triple quadrupole mass spectrometer (Agilent 6460). A C18 SPE cartridge (G9205A) was used in an acetonitrile/water liquid setup. The mass spectrometer was operated in negative electrospray mode following the mass transitions 303.1→259.1 for arachidonic acid and 311.1→267.0 for d8-arachidonic acid. The activity of the compounds was calculated based on the ratio of intensities [arachidonic acid/d8-arachidonic acid].

Molecule | pIC50
O=C1CO[C@H]2CCN(C(=O)N3C4CCC3CC(COc3ccc(F)cc3Cl)C4)C[C@H]2N1 (stereo partly drawn) [Example 26, (4aR,8aS)-6-[3-[(2-chloro-4-fluoro-phenoxy)methyl]-8-azabicyclo[3.2.1]octane-8-carbonyl]-4,4a,5,7,8,8a-hexahydropyrido[4,3-b][1,4]oxazin-3-one] | 5.43
O=C1CO[C@@H]2CCN(C(=O)N3CC4CCC(C3)C4COc3ccc(F)cc3Cl)C[C@@H]2N1 (stereo partly drawn) [Example 27, (4aS,8aR)-6-[8-[(2-chloro-4-fluoro-phenox)methyl]-3-azabicyclo[3.2.1]octane-3-carbonyl]-4,4a,5,7,8,8a-hexahydropyrido[4,3-b][1,4]oxazin-3-one] | 6.17
(4aR,8aS)-6-[rel-(1R,4R,5S)-5- [(5-chloro-4-cyclopropyl-2- pyridyl)methoxy]-2- azabicyclo[2.2.1]heptane-2- carbonyl]-4,4a,5,7,8,8a- hexahydropyrido[4,3- b][l,4]oxazin-3-one [Example 11] | 7.08

Stronger by pIC50, values ahead:

pIC50 | Molecule
7.73 | (4aR,8aS)-6-[rel-(1R,4R,5S)-5- [[2-fluoro-4- (trifluoromethyl)phenyl]methoxy]- 2-azabicyclo[2.2.1]heptane-2- carbonyl]-4,4a,5,7,8,8a- hexahydropyrido[4,3- b][1,4]oxazin-3-one [Example 21]
7.79 | (4aR,8aS)-6-[rel-(1R,4R,5S)-5- [(5-chloro-4-cyclopropyl-2- pyridyl)methoxy]-2- azabicyclo[2.2.1]heptane-2- carbonyl]-4,4a,5,7,8,8a- hexahydropyrido[4,3- b][1,4]oxazin-3-one [Example 10]
8.01 | (4aR,8aS)-6-[rel-(1R,4R,5S)-5- [[2-fluoro-4- (trifluoromethyl)phenyl]methoxy]- 2-azabicyclo[2.2.1]heptane-2- carbonyl]-4,4a,5,7,8,8a- hexahydropyrido[4,3- b][1,4]oxazin-3-one [Example 20]
